The numbers were not newly measured in US8765197B2, “Extract of herbal and composition containing the same” (Dong-A-Pharm, Co., Ltd., priority 2006, dated 2014), which cites them from elsewhere.

In this data set the test system is functional dyspepsia.

As for `COc1cc(N)c(Cl)cc1C(=O)NC1CCN(CCCOc2ccc(F)cc2)CC1OC` (centres unmarked) [cisapride], the “cases in which effective” value (administered for 4 to 8 weeks) is “more than 70%”. Also, for the setting “functional dyspepsia, placebo 27-53%”, the response rate was 50-82%.
